This note sets out measurements from patent publication US10426806B1, “Anti-obesity effect of Borago officinalis linn. extracts to prevent and treat metabolic disorders” (priority 2018, dated 2019).

Common to all, as to assay type: in vivo, Wistar rats
For series [1], the system named is high fat diet rats. Kind of series: Preventive study: high fat diet rats given extract or standard drug for 8 weeks. Conditions: for Average Food intake / Average body weight / Cholestrol / HDL / LDL / Tri-glyceride / VLDL: 8 weeks preventive study; for FBG (fasting blood glucose level): preventive study; for Cholestrol / HDL / LDL / Tri-glyceride / VLDL: serum. The procedure: (§1) Thirty male Wistar rats (210-220 g) were obtained from the animal house facility of Dr. Panjwani Center for Molecular Medicine and Drug Research (ICCBS). All animals were kept under standard conditions of temperature and humidity with a 12 h light/dark cycle. This study was approved by the Ethical Committee of International Center for Chemical and Biological Sciences (Protocol #: 2015-0011). After one week of acclimation period, rats were randomly divided into two groups. The control group was fed with normal diet (D12450B, Research Diets, USA), whereas the other groups were fed with high-fat diet (D12451, Research Diets, USA) for a period of 16-week. After 10 weeks, biochemical parameters were evaluated regularly to establish whether the model has developed the symptoms of weight gain and metabolic syndrome.
After a period of 16 weeks, the group of rats on high fat diet (HF) have developed symptoms of metabolic disorders, along with insulin resistance. The HF fed rats were then sub-divided into […] groups of three rats each, i.e. Group 1 (PA), Control; animals in this group received LFD, and distilled water. Group 2, Pathological control (PC); animals in this group received HFD, and distilled water. Group 3 (PO); animals in this group received HFD, and standard drug Orlistat (100 mg/kg/day). Group 4 (PS); animals in this group received HFD, and standard drug Sibutramine (5 mg/kg/day). Group 5 (PC1); animals in this group received HFD, and B. officinalis extract (150 mg/kg/day). Group 6 (PC2); animals in this group received HFD, and B. officinalis extract (300 mg/kg/day).
Body weights were recorded weekly throughout the experiment. The food intake was calculated by using following formula, as described by Ghezzi et al, 2012:
[…] Liver and pancreas samples were prepared and stained with hematoxylin and eosin; the liver was excised and fixed in buffered formalin. The sectioned liver tissue segments were stained with hematoxylin-eosin (H-E), and observed under light microscope.
(§2) Blood glucose, serum insulin, total cholesterol, triglycerides, HDL, LDL, very low density lipoproteins […], urea, creatinine, aspartate aminotransferase […], alkaline phosphatase (ALP), serum glutamic pyruvic transaminase (SGPT), and direct and total bilirubin were estimated. Fasting blood glucose levels were measured using glucometer (AccuChek Performa, Australia). Fasting insulin levels were quantified using ultra sensitive rat insulin ELISA kit (Crystal Chem, Downers Grove, USA). Insulin sensitivity was evaluated using Homeostatic Model Assessment (HOMA). Serum total cholesterol, triglycerides, HDL, LDL, VLDL, urea, creatinine, AST, ALP, SGPT, and direct and total bilirubin were analyzed using automatic analyzer (Hitachi, Roche Diagnostics 902, Tokyo, Japan).

The test system of series [2] is high-fat diet induced-obese rats. Kind of series: Therapeutic study: high-fat diet induced-obese rats treated for 12 weeks. Particulars: for Average Food intake / Average body weight / FBG (fasting blood glucose level) / Cholesterol / HDL / LDL / Triglycerides / VLDL: obese rats, 12 weeks of treatment; for Average food intake of rats: TO, TS, TC1 and TC2 treated groups, 12 weeks, HFD; for Cholesterol / HDL / LDL / Triglycerides / VLDL: serum. On the procedure: as §1
(§3) Whereas for therapeutic studies the animal groups were further sub-divided into following groups which are as follow: Group 1 (TA), Control; animals in this group received LFD, and distilled water. Group 2 (TC), Pathological control; animals in this group received HFD, and distilled water. Groups 3 (TO), High fat diet induced obese animals in this group received standard drug Orlistat (100 mg/kg/day). Group 4 (TS): High fat diet induced obese animals in this group received standard drug Sibutramine (5 mg/kg/day). Group 5 (TC1): High fat diet induced obese animals in this group received B. officinalis extract (150 mg/kg/day). Group 6 (TC2): High fat diet induced obese animals in this group received B. officinalis extract (300 mg/kg/day).
Body weights were recorded weekly throughout the experiment. The food intake was calculated by using following formula, as described by Ghezzi et al, 2012: […]
(§4) For biochemical analysis after 16 weeks of experimental diet, the blood samples were taken from the tail vein after an overnight fast, whereas after 12 weeks of treatment period, rats were subjected to anesthesia, and blood was drawn by cardiac puncture. Liver and pancreas samples were prepared and stained with hematoxylin and eosin; the liver was excised and fixed in buffered formalin. The sectioned liver tissue segments were stained with hematoxylin-eosin (H-E), and observed under light microscope.
as §2
In therapeutic study, we investigated the capacity of B. officinalis extracts to reduce the weight of high fat diet induced obese rats, and to improve the key biochemical parameters in metabolic disorders.
Obese rats were treated with Borago officinalis extracts, at two different doses i.e. 150 mg/kg, and 300 mg/kg of body weight for 12 weeks. During these 12 weeks they were also fed HFD.

For series [3] the test system is unchanged. Kind of series: Evaluation of renal and liver toxicity after 12 weeks of treatment (therapeutic study). Conditions: 5 mg/kg (TS). The procedure:
as §3, §4, §2
Evaluation of Renal and Liver Toxicity of Borago officinalis Extract

In the case of `CCCCCCCCCCC[C@@H](C[C@@H]1OC(=O)[C@H]1CCCCCC)OC(=O)[C@H](CC(C)C)NC=O` [Orlistat], in series [1] (100 mg/kg (PO)), the “Average Food intake” value was found to be 4.23 g/100 g, the Average body weight was found to be 256 ± 0.10 g, the “FBG (fasting blood glucose level)” value stood at 79 ± 1.04 mg/dL and the Cholestrol was found to be 68 ± 3.66 mg/dL. Also, in series [1] (100 mg/kg (PO)), the HDL is reported as 52 ± 3.04 mg/dL, the LDL was determined as 15 ± 0.41 mg/dL, the Tri-glyceride was 52 ± 0.16 mg/dL and the VLDL came to 9 ± 0.87 mg/dL. Also, in series [2] (100 mg/kg (TO)), the “Average Food intake” value is listed as 3.18 g/100 g, the “Average body weight” value turned out to be 356 ± 4.63 g, the “FBG (fasting blood glucose level)” value was determined as 84 ± 0.17 mg/dL and the Cholesterol is reported as 68 ± 3.66 mg/dL. In series [2] (100 mg/kg (TO)), this molecule registered an HDL of 52 ± 3.04 mg/dL, an LDL of 15 ± 0.41 mg/dL, a Triglycerides of 52 ± 0.16 mg/dL and a VLDL of 9 ± 0.87 mg/dL. The “Average food intake of rats” value in series [2] is “decrease”.

Regarding `CC(C)CC(N(C)C)C1(c2ccc(Cl)cc2)CCC1` (stereo not shown) [Sibutramine], in series [1] (5 mg/kg (PS)), the “Average Food intake” value is listed as 5.34 g/100 g, the Average body weight turned out to be 251 ± 0.11 g, the “FBG (fasting blood glucose level)” value is recorded as 76 ± 2.12 mg/dL and the Cholestrol stood at 65 ± 0.13 mg/dL. Also, in series [1] (5 mg/kg (PS)), the HDL is reported as 59 ± 0.16 mg/dL, the LDL came to 14 ± 0.68 mg/dL, the Tri-glyceride was 51 ± 0.19 mg/dL and the VLDL was determined as 9 ± 0.8 mg/dL. In series [2] (5 mg/kg (TS)), the “Average Food intake” value is on record as 4.20 g/100 g, the “Average body weight” value was found to be 361 ± 6.43 g, the “FBG (fasting blood glucose level)” value is recorded as 80 ± 0.12 mg/dL and the Cholesterol stood at 65 ± 0.13 mg/dL. In series [2] (5 mg/kg (TS)), this molecule showed an HDL of 59 ± 0.16 mg/dL, an LDL of 14 ± 0.68 mg/dL, a Triglycerides of 51 ± 0.19 mg/dL and a VLDL of 9 ± 0.8 mg/dL. In series [2], the “Average food intake of rats” value was “decrease”. In series [3], this molecule displayed an ALP of 116 ± 0.14 U/L, an ALT of 85 ± 0.009 U/L, a Creatinine of 0.49 ± 0.02 mg/dL and an SGPT of 38 ± 3.34 U/L. Moreover, in series [3], the “Total Bilirubin” value turned out to be 0.15 ± 0.01 mg/dL and the Urea is listed as 31 ± 2.42 mg/dL.
